Measurements from patent US12257290B2, “PIC1 inhibition of myeloperoxidase oxidative activity in an animal model” (priority 2018, dated 2025).
Ends that are not written are not given here.

Assays:
[1] = 'Two-hit' TRALI model: LPS then 30% mismatched human RBC transfusion; type: in vivo, Wistar rats
Protocol: In this Example, Wistar rats were primed with lipopolysaccharide followed by 30% transfusion of mismatched erythrocytes, against which the rats have preexisting antibodies. Sham and vehicle animals were used as controls with a subgroup of animals receiving PIC1 two minutes before transfusion. At 4 hours, blood was isolated for complete blood count. Isolated lung tissue was stained with hematoxylin and eosin and myeloperoxidase (MPO) activity in lung tissue was quantified in a functional assay. Free DNA in plasma was detected by PicoGreen staining.
Lung tissue stained with H&E was analyzed by a clinician blinded to the experimental groups (vehicle only and PIC1-treated animals). Neutrophil infiltration and cell wall thickening were scored on a scale of 0-4: 0=normal lungs, 1=minor lung involvement, 2=moderate lung involvement, 3=serious lung involvement, 4=severe lung involvement.
A myeloperoxidase (MPO) activity assay was conducted as follows. Frozen lung tissue was diced and homogenized on ice in 50 mM potassium phosphate, and centrifuged at 10,000 RPM at 4° C. for 15 minutes after which the supernatant was discarded. To solubilize MPO from the neutrophils in lung tissue, the pellet was resuspended in […] 50 mM hexadecyltrimethylammonium bromide (HTAB), homogenized by sonication and snap frozen in liquid nitrogen. This process was repeated twice and samples were then centrifuged at 10,000 RPM at 4° C. for 10 minutes and supernatant collected.
Peroxidase activity in these samples was measured using 10-actyl-3,7-dihydroxyphenoxazine (ADHP, Amplex Red) following MPO antibody capture from samples as previously described. Fluorescence was read from […] in […] which provided twenty-five data points per well at an excitation wavelength of 535 nm and emission wavelength of 590 nm using a BioTek microplate reader. Purified MPO was used as a positive control and phosphate buffered saline (PBS) as a negative control. All activity assays were performed in triplicate.
Free DNA was measured by PicoGreen in rat plasma as previously described. Briefly, plasma samples were diluted 1:10 in 10 mM Tris-HCl, 1 mM EDTA, pH 8.0 (TE) buffer and 50 uL of each sample was added to the wells along with 50 uL of a 1:200 dilution of PicoGreen (Life Technologies) and incubated at room temperature for 10 minutes, protected from light. A DNA standard curve was prepared in TE Buffer. The fluorescence was then read at an excitation wavelength of 485 nm and an emission wavelength of 520 nm using a BioTek microplate reader. All free DNA measurements were done in triplicate.
For the ‘two-hit’ model, rats were sedated as above and lipopolysaccharide (LPS, from Salmonella enterica serotype enteritidis, 2 mg/kg [Millipore-Sigma]) was administered intravascularly through the indwelling jugular catheter as the ‘first-hit’ similar to other TRALI models (reviewed in references). This was followed 30 minutes later by 30% mismatched RBC transfusion as the ‘second-hit’. Blood samples were collected prior to LPS administration and at 4 hours after RBC transfusion for analysis of blood chemistries (SuperChem and CBC, Antech Diagnostics). Upon completion of the final blood draw, the animals were euthanized using isofluorane and guillotine. A necropsy was completed to collect organs for histopathology. Lungs acquired from each animal were weighed and then stored in formalin or frozen at −70° C. Hematoxylin and eosin (H&E) stained sections of formalin fixed tissue were reviewed in a blinded fashion.
To determine if prophylactic administration of PIC1 would attenuate TRALI pathogenesis, this transfusion-based antibody-initiated complement-mediated TRALI model was utilized. Twenty-eight minutes after IV LPS infusion, 160 mg/kg PIC1 or vehicle control was administered IV followed by the 30% mismatched RBC transfusion. […]

[2] = tested on: classical complement pathway; details: administered intravascularly into rats; by 30 seconds; cited from earlier work

IALILEPICCQERAA-dPEG24 (cysteine pairing not given here) [PA-dPEG24, 15-amino acid PEGylated peptide, 24 PEG moieties at the C-terminus]
lung weight ([1]; 160 mg/kg IV 2 min before transfusion, 4 h after transfusion, vs vehicle p=0.001): significant reduction | lung histology (H&E) ([1]; 160 mg/kg IV prophylactic, 4 h after transfusion): decreased injury to the lung architecture | MPO activity in lung tissue (Amplex Red) ([1]; 5 minutes read, vs vehicle p=0.005): significantly reduced | MPO activity in lung tissue (Amplex Red) ([1]; 10 minutes read, vs vehicle p=0.002): significantly reduced | lung injury score (neutrophil infiltration and cell wall thickening), mean ([1]; scale 0-4, 160 mg/kg IV, vs vehicle p=0.003): 1.5 | free DNA in plasma (PicoGreen) ([1]; vs vehicle p=0.02): significantly reduced | blood levels of white blood cells ([1]; vs vehicle p=0.043): significant increase | blood levels of lymphocytes ([1]; vs vehicle p=0.048): significant increase | circulating neutrophils ([1]; vs vehicle p=0.101): trends towards increased numbers | circulating monocytes ([1]; vs vehicle p=0.229): trends towards increased numbers | blood levels of creatinine, BUN/creatinine and AST ([1]; vs vehicle, data not shown): reduction | kidney weights ([1]; vs vehicle, data not shown): reduced kidney weights | systemic inhibition of complement activation [2]: > 90%
